Consider 15 molecules from patent publication US12433952B2, “Antibody-drug conjugates targeting folate receptor alpha and methods of use” (ZYMEWORKS BC INC., priority 2022, dated 2025).

Like-named read-outs stand apart in the source and are kept apart here.

Holding throughout (assay): In vitro cytotoxicity of camptothecin analogues (CellTiter-Glo)
Type in all cases: cell-based
On the technique in general: In ATP-based viability assays light output follows the ATP content of the culture.

Assay [1] concerns Calu-3 (lung cancer). The settings on record: Homo sapiens, Calu-3, 96 h, read-out: pIC50 Calu-3 (converted). The method, then: (§1) Cytotoxicity of the camptothecin analogues was assessed in vitro as follows.
(§2) In vitro potency was assessed on multiple cancer cell lines: SK-BR-3 (breast cancer), SKOV-3 (ovarian cancer), Calu-3 (lung cancer), ZR-75-1 (breast cancer) and MDA-MB-468 (breast cancer). Serial dilutions of camptothecin analogues were prepared in RPMI 1640+10% FBS, and 20 μL of each dilution was added to 384-well plates. Cells cultured in log-phase growth were detached by brief incubation in 0.05% Trypsin and resuspended in respective culturing media at 20,000 cells/mL (with the exception of ZR-75 cells, which were resuspended at 10,000 cells/mL). 50 μL of cell suspension was then added to the plates containing test articles. Cells were incubated with test articles for 4 d at 37° C. (with the exception of ZR-75 cells, which were incubated for 5 d). Growth inhibition was assessed by CellTiter-Glo® (Promega Corporation, Madison, WI) and luminescence was measured on a plate reader. IC50 values were determined by GraphPad Prism (GraphPad Software, San Diego CA).

Assay [2] has as its system MDA-MB-468 (breast cancer). The settings on record: Homo sapiens, MDA-MB-468, 96 h, read-out: pIC50 MDA-MB-468 (converted). The method, then: as §1, §2
In assay [3] the test system is SKOV-3 (ovarian cancer). The settings on record: Homo sapiens, SK-OV-3, 96 h, read-out: pIC50 SKOV-3 (converted). The method, then:
as §1, §2

Assay [4] has as its system ZR-75-1 (breast cancer). The settings on record: Homo sapiens, ZR-75-1, 120 h, read-out: pIC50 ZR-75 (converted). The method, then: as §1, §2
Assay [5] deals with SK-BR-3 (breast cancer). The note with it: Homo sapiens, SK-BR-3, 96 h, read-out: pIC50 SKBR-3 (converted). The method, then: as §1, §2

On to `CC[C@@]1(O)C(=O)OCc2c1cc1n(c2=O)Cc2c-1nc1cc(F)c(C)cc1c2CN1CCNCC1` [Compound 112, (S)-4-ethyl-8-fluoro-4-hydroxy-9-methyl-11-(piperazin-1-ylmethyl)-1,12-dihydro-14H-pyrano[3′,4′:6,7]indolizino[1,2-b]quinoline-3,14(4H)-dione], for which the IC50 in assay [1] (4 d incubation) was 17.4 nM; in assay [2] (4 d incubation), 13.5 nM; in assay [3] (4 d incubation), 20 nM; in assay [4] (5 d incubation) it was 12 nM; in assay [5] (4 d incubation), 6.61 nM.
For `CC[C@@]1(O)C(=O)OCc2c1cc1n(c2=O)Cc2c-1nc1cc(F)c(C)cc1c2CN1CCO[C@@H](CO)C1` [Compound 113, (S)-4-ethyl-8-fluoro-4-hydroxy-11-(((R)-2-(hydroxymethyl)morpholino)methyl)-9-methyl-1,12-dihydro-14H-pyrano[3′,4′:6,7]indolizino[1,2-b]quinoline-3,14(4H)-dione], the IC50 in assay [1] was 3.02 nM; in assay [2], 3.39 nM; in assay [3] it was 4.27 nM; in assay [4] it was 2.19 nM; in assay [5] it was 1.95 nM.
For `CC[C@@]1(O)C(=O)OCc2c1cc1n(c2=O)Cc2c-1nc1cc(F)c(N)cc1c2CNC(=O)NCCO` [Compound 151, (S)-1-((9-amino-4-ethyl-8-fluoro-4-hydroxy-3,14-dioxo-3,4,12,14-tetrahydro-1H-pyrano[3′,4′:6,7]indolizino[1,2-b]quinolin-11-yl)methyl)-3-(2-hydroxyethyl)urea], the IC50 in assay [1] (4 d incubation) is 11.5 nM; in assay [2] (4 d incubation) it was 11.5 nM; in assay [3] (4 d incubation) it was 45.7 nM; in assay [4] (5 d incubation) it was 5.89 nM; in assay [5] (4 d incubation), 2.69 nM.
For `CC[C@@]1(O)C(=O)OCc2c1cc1n(c2=O)Cc2c-1nc1cc(F)c(C)cc1c2CN1CCN(C)CC1` [Compound 106, (S)-4-ethyl-8-fluoro-4-hydroxy-9-methyl-11-((4-methylpiperazin-1-yl)methyl)-1,12-dihydro-14H-pyrano[3′,4′:6,7]indolizino[1,2-b]quinoline-3,14(4H)-dione], the IC50 in assay [1] (4 d incubation) was 4.57 nM; in assay [2] (4 d incubation), 9.33 nM; in assay [3] (4 d incubation), 7.41 nM; in assay [4] (5 d incubation), 3.8 nM; in assay [5] (4 d incubation), 3.39 nM.
Regarding `CC[C@@]1(O)C(=O)OCc2c1cc1n(c2=O)Cc2c-1nc1cc(F)c(C)cc1c2CNC(=O)NCc1ccc(N)cc1` [Compound 134, (S)-1-(4-aminobenzyl)-3-((4-ethyl-8-fluoro-4-hydroxy-9-methyl-3,14-dioxo-3,4,12,14-tetrahydro-1H-pyrano[3′,4′:6,7]indolizino[1,2-b]quinolin-11-yl)methyl)urea], the IC50 in assay [1] (4 d incubation) is 24.5 nM; in assay [2] (4 d incubation) it was 11.5 nM; in assay [3] (4 d incubation) it was 77.6 nM; in assay [4] (5 d incubation), 12 nM; in assay [5] (4 d incubation) it was 9.55 nM.
On to `CC[C@@]1(O)C(=O)OCc2c1cc1n(c2=O)Cc2c-1nc1cc(F)c(C)cc1c2CNS(=O)(=O)c1ccc(N)cc1` [Compound 127, (S)-4-amino-N-((4-ethyl-8-fluoro-4-hydroxy-9-methyl-3,14-dioxo-3,4,12,14-tetrahydro-1H-pyrano[3′,4′:6,7]indolizino[1,2-b]quinolin-11-yl)methyl)benzenesulfonamide], for which the IC50 in assay [1] is 9.33 nM; in assay [2], 3.8 nM; in assay [3] it was 14.5 nM; in assay [4], 5.25 nM; in assay [5], 3.31 nM.
On to `CC[C@@]1(O)C(=O)OCc2c1cc1n(c2=O)Cc2cc3cc(N)c(F)cc3nc2-1` [Compound 140, (S)-9-amino-4-ethyl-8-fluoro-4-hydroxy-1,12-dihydro-14H-pyrano[3′,4′:6,7]indolizino [1,2-b]quinoline-3,14(4H)-dione], for which the IC50 in assay [1] (4 d incubation) is 0.309 nM; in assay [2] (4 d incubation), 0.708 nM; in assay [3] (4 d incubation), 0.457 nM; in assay [4] (5 d incubation) it was 0.331 nM; in assay [5] (4 d incubation), 0.316 nM.
For `CC[C@@]1(O)C(=O)OCc2c1cc1n(c2=O)Cc2c-1nc1cc(F)c(C)cc1c2CNS(C)(=O)=O` [Compound 122, (S)—N-((4-ethyl-8-fluoro-4-hydroxy-9-methyl-3,14-dioxo-3,4,12,14-tetrahydro-1H-pyrano[3′,4′:6,7]indolizino[1,2-b]quinolin-11-yl)methyl)methanesulfonamide], the IC50 in assay [1] was 3.72 nM; in assay [2], 1.1 nM; in assay [3], 9.12 nM; in assay [4], 1.29 nM; in assay [5], 1.12 nM.
With `CC[C@@]1(O)C(=O)OCc2c1cc1n(c2=O)Cc2c-1nc1cc(F)c(C)cc1c2CN1CCN(S(=O)(=O)c2ccc(N)cc2)CC1` [Compound 104, (S)-11-((4-((4-aminophenyl)sulfonyl)piperazin-1-yl)methyl)-4-ethyl-8-fluoro-4-hydroxy-9-methyl-1,12-dihydro-14H-pyrano[3′,4′:6,7]indolizino[1,2-b]quinoline-3,14(4H)-dione], the IC50 in assay [1] (4 d incubation) was 5.25 nM; in assay [2] (4 d incubation) it was 2.63 nM; in assay [3] (4 d incubation), 7.76 nM; in assay [4] (5 d incubation) it was 2.57 nM; in assay [5] (4 d incubation) it was 2.69 nM.
Consider `CC[C@@]1(O)C(=O)OCc2c1cc1n(c2=O)Cc2c-1nc1cc(F)c(N)cc1c2CNC(=O)NC` [Compound 144, (S)-1-((9-amino-4-ethyl-8-fluoro-4-hydroxy-3,14-dioxo-3,4,12,14-tetrahydro-1H-pyrano[3′,4′:6,7]indolizino[1,2-b]quinolin-11-yl)methyl)-3-methylurea], for which the IC50 in assay [1] (4 d incubation) is 22.4 nM; in assay [2] (4 d incubation), 22.4 nM; in assay [3] (4 d incubation) it was 69.2 nM; in assay [4] (5 d incubation), 13.2 nM; in assay [5] (4 d incubation), 0.794 nM.
Regarding `CC[C@@]1(O)C(=O)OCc2c1cc1n(c2=O)Cc2c-1nc1cc(F)c(N)cc1c2CN` [Compound 145, (S)-9-amino-11-(aminomethyl)-4-ethyl-8-fluoro-4-hydroxy-1,12-dihydro-14H-pyrano[3′,4′:6,7]indolizino[1,2-b]quinoline-3,14(4H)-dione], the IC50 in assay [1] (4 d incubation) is 0.269 nM; in assay [2] (4 d incubation), 0.269 nM; in assay [3] (4 d incubation) it was 0.933 nM; in assay [4] (5 d incubation) it was 0.38 nM; in assay [5] (4 d incubation), 0.355 nM.
Consider `CC[C@@]1(O)C(=O)OCc2c1cc1n(c2=O)Cc2c-1nc1cc(F)c(N)cc1c2CN1CCN(C)CC1` [Compound 149, (S)-9-amino-4-ethyl-8-fluoro-4-hydroxy-11-((4-methylpiperazin-1-yl)methyl)-1,12-dihydro-14H-pyrano[3′,4′:6,7]indolizino[1,2-b]quinoline-3,14(4H)-dione], for which the IC50 in assay [1] (4 d incubation) is 6.31 nM; in assay [2] (4 d incubation), 6.31 nM; in assay [3] (4 d incubation), 10 nM; in assay [4] (5 d incubation) it was 1.82 nM; in assay [5] (4 d incubation) it was 3.16 nM.
For `CC[C@@]1(O)C(=O)OCc2c1cc1n(c2=O)Cc2c-1nc1cc(F)c(N)cc1c2CO` [Compound 141, (S)-9-amino-4-ethyl-8-fluoro-4-hydroxy-11-(hydroxymethyl)-1,12-dihydro-14H-pyrano[3′,4′:6,7]indolizino[1,2-b]quinoline-3,14(4H)-dione], the IC50 was 1.02 nM in assay [1] (4 d incubation); 1.45 nM in assay [2] (4 d incubation); 2.82 nM in assay [3] (4 d incubation); 0.309 nM in assay [4] (5 d incubation); 0.347 nM in assay [5] (4 d incubation).
As for `CC[C@@]1(O)C(=O)OCc2c1cc1n(c2=O)Cc2c-1nc1cc(F)c(OC)cc1c2CN1CCN(S(=O)(=O)c2ccccc2)CC1` [Compound 103, (S)-4-ethyl-8-fluoro-4-hydroxy-9-methoxy-11-((4-(phenylsulfonyl)piperazin-1-yl)methyl)-1,12-dihydro-14H-pyrano[3′,4′:6,7]indolizino[1,2-b]quinoline-3,14(4H)-dione], the IC50 was 2.34 nM in assay [1] (4 d incubation); 4.68 nM in assay [2] (4 d incubation); 4.37 nM in assay [3] (4 d incubation); 2.4 nM in assay [4] (5 d incubation); 1.7 nM in assay [5] (4 d incubation).
The matching figures for `CC[C@@]1(O)C(=O)OCc2c1cc1n(c2=O)Cc2c-1nc1cc(F)c(OC)cc1c2CNS(=O)(=O)c1ccccc1` [Compound 126, (S)—N-((4-ethyl-8-fluoro-4-hydroxy-9-methoxy-3,14-dioxo-3,4,12,14-tetrahydro-1H-pyrano[3′,4′:6,7]indolizino[1,2-b]quinolin-11-yl)methyl)benzenesulfonamide]: 2.95 nM, 1.95 nM, 6.31 nM, 0.724 nM and 1.1 nM.
